Series [1] is described as follows: Sample solution stability (short term), HPLC-MS/MS method validation. Conditions: stored at room temperature. It counts as physicochemical. As for the experimental part: Described herein are instantaneous dissolution methods comprising a step using a LC/MS/MS technique to measure the concentration of the active ingredient in the instantaneous dissolution solution. Specifically, the LC/MS/MS procedure includes: centrifuge samples from above instantaneous dissolution solution at 6000×g for 5 minutes (if sample appears cloudy) to obtain clear solution; take out supernatant or clear solution and load into HPLC auto samplers. If the concentration of the active ingredient is above the upper calibration range (100 ng/mL), the sample solution will go through further dilution, for instance, by pipetting 100 μL of the centrifuged sample solution into 4.9 mL of sample diluents; If dilution sample is still above the calibration range, a serial dilution can be made with the dilution solution containing Internal Standard. Final diluted sample concentration should fall into the calibration range.
A summary of the HPLC-MS/MS method validation results can be found in the table below: […]

The nature of series [2]: Instantaneous dissolution of coated tablets in 5% human saliva solution, LC/MS/MS. The class given is physicochemical. An excerpt: A typical procedure for preparing the instantaneous dissolution solutions of coated tablets is described as follows: a tablet comprising a core and a film coating—in this case a coated eszopiclone tablet—is randomly selected, and then placed into a basket sinker (e.g., Hanson Research Part # ENMISC, BSK008-JP 8 mesh, 0.76″ L×0.41″ W) with long handle (made from stainless steel tubing). The basket is then immersed in dissolution diluent (e.g., 5% human saliva solution) in vial 1 for 2-5 seconds, then moved to vial 2 for 2-5 seconds dipping and so on with the same tablet. The dissolution diluents (e.g., 5% human saliva solution in water) can be prepared by mixing thoroughly about 50 mL of normal human saliva and about 950 mL of water in a suitable container. About 5 mL of the 5% human saliva solution is then pipetted into several scintillation vials (approximately 20 mL volume). This procedure has been employed with tablets coated with about 2-4% coating by weight
Alternatively, the dipping experiment described above may be carried out by immersing the tablet in the basket in dissolution diluents (e.g., about 5% human saliva solution in water) in vial 1, moving the basket up and down for about 2-5 seconds at a speed of approximate 1 dip every two seconds; remove the basket from the diluent; take a sample of the diluent; re-immerse the tablet in the same vial. Continue the experiment similarly to collect samples until the tablet disintegrates or the preselected time course is completed, whichever comes first. In this embodiment, a new tablet is used in each vial. The experiment is repeated as described for additional nine or ten tablets (total of 10 tablets). The concentration of active ingredient, e.g., eszopiclone, in the sample solutions is then determined using LC/MS/MS (ESI mode, positive MRM scan type). The dissolution instantaneous profile of the tablets is constructed by plotting logarithmic concentration of eszopiclone versus time in seconds.
Another typical procedure for preparing the instantaneous dissolution solutions of coated tablets is described as follows: a number of tablets comprising a core and a film coating—in this case coated eszopiclone tablets—are transferred into basket sinkers and into a series of vials containing the dissolution diluents. The basket is then immersed in dissolution diluents (e.g., 5% human saliva solution in water) in vial 1 for 5 seconds, in vial 2 for 10 seconds, in vial 3 for 15 seconds dipping and so on with the series of tablets. The dissolution diluents (e.g., 5% human saliva solution in water) can be prepared by mixing thoroughly 50 mL of normal human saliva and 950 mL of water in a suitable container. About 5 mL of the 5% human saliva solution is then pipetted into several scintillation vials (approximately 20 mL volume). This procedure has been employed with tablets coated with 3-8% coating by weight.
In each scenario above, the concentration of core material, e.g., eszopiclone, the active ingredient in the sample solutions, is determined using LC/MS/MS (ESI mode, positive MRM scan type). The dissolution instantaneous profile of the tablets is constructed by plotting logarithmic concentration of eszopiclone versus time in seconds.
Described herein are instantaneous dissolution methods comprising a step using a LC/MS/MS technique to measure the concentration of the active ingredient in the instantaneous dissolution solution. Specifically, the LC/MS/MS procedure includes: centrifuge samples from above instantaneous dissolution solution at 6000×g for 5 minutes (if sample appears cloudy) to obtain clear solution; take out supernatant or clear solution and load into HPLC auto samplers. […]

Consider `CN1CCN(C(=O)O[C@H]2c3nccnc3C(=O)N2c2ccc(Cl)cn2)CC1` [Eszopiclone, (S)-(6-(5-chloro-2-pyridyl)-5-[(4-methyl-1-piperazinyl)carbonyloxy]-7-oxo-6,7-dihydro-5H-pyrrolo[3,4-b]pyrazine)], for which the “Sample solution stability (short term)” value in series [1] was “Sample solutions are stable for 8 hours”. In addition, the “Mean, % dissolved results” value is listed as 5.317% in series [2] (Time 5 seconds); 6.875% in series [2] (Time 10 seconds); 7.461% in series [2] (Time 15 seconds); 14.144% in series [2] (Time 20 seconds); 12.222% in series [2] (Time 25 seconds); 16.625% in series [2] (Time 30 seconds). Further, the “Mean, % dissolved results” value in series [2] (Time 35 seconds) is 22.404%; in series [2] (Time 40 seconds) it was 14.658%; in series [2] (Time 45 seconds), 14.989%; in series [2] (Time 50 seconds), 12.477%.

(Values after patent US9114086B2, “Coated tablets of eszopiclone” (Sunovion Pharmaceuticals Inc., priority 2009, dated 2015).)
